# Assays:
# mice = assay: Porsolt's swim test (Behavioural Despair Test); format: in vivo; conditions: for Duration of immobility ± Standard Error of Mean: 30 minutes before the test, last 4 of 6 minutes
# Protocol: The “Behavioural Despair Test” or “Porsolt's Forced Swim Test” is a validated animal model for depression (see T. Nagatsu, NeuroToxicology 2004, 25, 11-20, especially p. 16, right column in the middle, in combination with Porsolt et al., Arch. Int. Pharmacodyn. 1977, 229, 327-336). It responds to enhancement of the transmission of several neurotransmitters including serotonine, dopamine and noradrenaline.
# The test, which detects antidepressant activity, was carried out as described by Porsolt et al. in Arch. Int. Pharmacodyn. 1977, 229, 327-336. Mice which are forced to swim in a situation from which they cannot escape rapidly become immobile. Antidepressants decrease the duration of immobility.
# Mice were individually placed in a cylinder (Height=24 cm, Diameter=13 cm) containing 10 cm water (22° C.) from which they could not escape. The mice were placed in the water for 6 minutes and the duration of immobility during the last 4 minutes was measured.
# 10 mice were studied per each of the four groups. The test was performed blind, i.e. the person carrying out the experiment was different from the person injecting the mice and didn't thus know to which of the four groups each mouse belonged.
# Obliquin was evaluated at 3 doses each: at 10, 30, and 80 mg/kg body weight, administered intraperitonally 30 minutes before the test, and compared with a control group. The thus administered obliquin was dissolved in a saline solution containing 3 weight-% DMSO and 3 weight-% Tween® 80 (so called “vehicle”). To the control group the vehicle consisting of the saline solution containing 3 weight-% DMSO and 3 weight-% Tween® 80 was administered intraperitonally.
# Data were analyzed by comparing the treated groups with the control group using the unpaired Student's T tests and Analysis of Variance (ANOVA).
# MAO-A = target: T1, MAO-A (Homo sapiens, UniProt P21397); assay: MAO-A inhibition, Amplex Red Monoamine Oxidase Assay Kit, colorimetric; format: biochemical; conditions: substrate p-tyramine
# T1 construct: purchased Sigma M7316
# T1 sequence (P21397 1-527): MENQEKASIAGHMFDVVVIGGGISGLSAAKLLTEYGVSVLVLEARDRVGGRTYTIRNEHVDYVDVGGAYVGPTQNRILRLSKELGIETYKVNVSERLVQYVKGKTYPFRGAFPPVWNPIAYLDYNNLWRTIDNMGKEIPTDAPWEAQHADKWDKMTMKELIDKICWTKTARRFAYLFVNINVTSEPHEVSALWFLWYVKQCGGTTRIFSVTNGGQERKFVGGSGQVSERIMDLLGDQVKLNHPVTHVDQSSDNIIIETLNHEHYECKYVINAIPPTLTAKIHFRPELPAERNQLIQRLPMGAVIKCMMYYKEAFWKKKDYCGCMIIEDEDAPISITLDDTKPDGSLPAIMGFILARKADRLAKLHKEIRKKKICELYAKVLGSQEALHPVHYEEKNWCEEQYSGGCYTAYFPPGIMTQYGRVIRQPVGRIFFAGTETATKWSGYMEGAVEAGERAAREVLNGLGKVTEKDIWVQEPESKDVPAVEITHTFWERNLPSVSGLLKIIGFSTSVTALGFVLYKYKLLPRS
# Protocol: From a stock solution of 0.0405 g of racemic obliquin (92.5%; equal to 37.5 mg of pure compound) in 750 μl of dimethylsulfoxide (DMSO), working solutions were prepared with a concentration of obliquin of 4. 10^−4M in reaction buffer (0.05 M sodium phosphate, pH 7.4, 0.2% DMSO). The final concentrations of obliquin in the test system were 10^−4 M, 10^−5 M, 10^−6 M, 10^−7 M.
# For determining the inhibition of monoaminoxidases' activity, the Amplex Red Monoamine Oxidase Assay Kit (Molecular Probes Nr._A-12214, Colorimetric version) was conducted according to manufacturers instructions.
# As substrates for MAO-A enzyme (Sigma Nr. M7316) p-tyramine and as substrate for MAO-B enzyme (Sigma Nr. M7441) benzylamine were used. The concentration of MAO-A enzyme was 8 Units/ml, and that of MAO-B 4 Units/ml in the working solution.
# MAO-A and MAO-B Assay, Colorimetric Version:
# For the assay, 50 μl of each working solution (see above) were used. As control solution, the obliquin containing working solution was replaced by 50 μl of the reaction buffer.
# 50 μl of diluted MAO-A with a final concentration of 2 Units/ml and 50 μl of diluted MAO-B with a final concentration of 1 Unit/ml, respectively, were added.
# 100 μl of the Amplex solution containing horseradish peroxidase (2 U/ml) and the substrate tyramine (for MAO-A) or the substrate benzylamine (for MAO-B) were added.
# To allow a subtraction of the background absorption a mixture of 100 μl of the Amplex solution and 100 μl of the reaction buffer was measured as a “blank”.
# The samples were incubated at room temperature in the dark for 1 hour, and then the extinction at 535 nm determined in a Softmax Microplate photometer (Molecular Device).
smiles,measurement,setting,value
"C=C(C)[C@H]1COc2cc3oc(=O)ccc3cc2O1 (racemic) [Obliquin, obliquin]",Duration of immobility ± Standard Error of Mean,"mice; mice, 10 mg/kg body weight i.p.",170.4 ± 11.1 s
same,Duration of immobility ± Standard Error of Mean,"mice; mice, 30 mg/kg body weight i.p.",150.9 ± 9.6 s
same,Duration of immobility ± Standard Error of Mean,"mice; mice, 80 mg/kg body weight i.p., p < 0.01 vs control",132.1 ± 10.5 s
same,Dose dependence of effect on immobility time,"mice; mice, 10, 30, 80 mg/kg i.p., ANOVA p<0.05",significant dose dependent effect
same,Reduction of immobility time,"mice; mice, highest dose group (80 mg/kg i.p.), vs control group",25%
same,inhibition at 0.1 µM,MAO-A; obliquin 1 x 10^−7 M,2%
same,inhibition at 1 µM,MAO-A; obliquin 10 x 10^−7 M,2%
same,inhibition at 10 µM,MAO-A; obliquin 100 x 10^−7 M,6.5%
same,inhibition at 100 µM,MAO-A; obliquin 1000 x 10^−7 M,24.1%
